Results taken from patent publication US8969356B2, “Compounds useful as inhibitors of ATR kinase” (Vertex Pharmaceuticals Incorporated, priority 2010, dated 2015).

target: T1, ATR kinase (Homo sapiens, UniProt Q13535); test: ATR Inhibition Assay (radioactive-phosphate incorporation); assay type: biochemical; conditions: not given
T1 construct: Assays were carried out at 25° C. in the presence of 5 nM full-length ATR
Description: Compounds were screened for their ability to inhibit ATR kinase using a radioactive-phosphate incorporation assay. Assays were carried out in a mixture of 50 mM Tris/HCl (pH 7.5), 10 mM MgCl2 and 1 mM DTT. Final substrate concentrations were 10 μM [γ-33P]ATP (3mCi 33P ATP/mmol ATP, Perkin Elmer) and 800 μM target peptide ([…] (SEQ. ID NO: 1)).
Assays were carried out at 25° C. in the presence of 5 nM full-length ATR. An assay stock buffer solution was prepared containing all of the reagents listed above, with the exception of ATP and the test compound of interest. 13.5 μL of the stock solution was placed in a 96 well plate followed by addition of 2 μL of DMSO stock containing serial dilutions of the test compound (typically starting from a final concentration of 15 μM with 3-fold serial dilutions) in duplicate (final DMSO concentration 7%). The plate was pre-incubated for 10 minutes at 25° C. and the reaction initiated by addition of 15 μL [γ-33P]ATP (final concentration 10 μM).
The reaction was stopped after […] by the addition of 30 μL 0.1M phosphoric acid containing 2 mM ATP. A multiscreen phosphocellulose filter 96-well plate (Millipore, Cat no. MAPHN0B50) was pretreated with 100 μL 0.2M phosphoric acid prior to the addition of 45 μL of the stopped assay mixture. The plate was washed with 5×200 μL 0.2M phosphoric acid. After drying, 100 μL Optiphase ‘SuperMix’ liquid scintillation cocktail (Perkin Elmer) was added to the well prior to scintillation counting (1450 Microbeta Liquid Scintillation Counter, Wallac).
After removing mean background values for all of the data points, Ki(app) data were calculated from non-linear regression analysis of the initial rate data using the Prism software package (GraphPad Prism version 3.0cx for Macintosh, GraphPad Software, San Diego Calif., USA).

T1 sequence (Q13535 whole entry): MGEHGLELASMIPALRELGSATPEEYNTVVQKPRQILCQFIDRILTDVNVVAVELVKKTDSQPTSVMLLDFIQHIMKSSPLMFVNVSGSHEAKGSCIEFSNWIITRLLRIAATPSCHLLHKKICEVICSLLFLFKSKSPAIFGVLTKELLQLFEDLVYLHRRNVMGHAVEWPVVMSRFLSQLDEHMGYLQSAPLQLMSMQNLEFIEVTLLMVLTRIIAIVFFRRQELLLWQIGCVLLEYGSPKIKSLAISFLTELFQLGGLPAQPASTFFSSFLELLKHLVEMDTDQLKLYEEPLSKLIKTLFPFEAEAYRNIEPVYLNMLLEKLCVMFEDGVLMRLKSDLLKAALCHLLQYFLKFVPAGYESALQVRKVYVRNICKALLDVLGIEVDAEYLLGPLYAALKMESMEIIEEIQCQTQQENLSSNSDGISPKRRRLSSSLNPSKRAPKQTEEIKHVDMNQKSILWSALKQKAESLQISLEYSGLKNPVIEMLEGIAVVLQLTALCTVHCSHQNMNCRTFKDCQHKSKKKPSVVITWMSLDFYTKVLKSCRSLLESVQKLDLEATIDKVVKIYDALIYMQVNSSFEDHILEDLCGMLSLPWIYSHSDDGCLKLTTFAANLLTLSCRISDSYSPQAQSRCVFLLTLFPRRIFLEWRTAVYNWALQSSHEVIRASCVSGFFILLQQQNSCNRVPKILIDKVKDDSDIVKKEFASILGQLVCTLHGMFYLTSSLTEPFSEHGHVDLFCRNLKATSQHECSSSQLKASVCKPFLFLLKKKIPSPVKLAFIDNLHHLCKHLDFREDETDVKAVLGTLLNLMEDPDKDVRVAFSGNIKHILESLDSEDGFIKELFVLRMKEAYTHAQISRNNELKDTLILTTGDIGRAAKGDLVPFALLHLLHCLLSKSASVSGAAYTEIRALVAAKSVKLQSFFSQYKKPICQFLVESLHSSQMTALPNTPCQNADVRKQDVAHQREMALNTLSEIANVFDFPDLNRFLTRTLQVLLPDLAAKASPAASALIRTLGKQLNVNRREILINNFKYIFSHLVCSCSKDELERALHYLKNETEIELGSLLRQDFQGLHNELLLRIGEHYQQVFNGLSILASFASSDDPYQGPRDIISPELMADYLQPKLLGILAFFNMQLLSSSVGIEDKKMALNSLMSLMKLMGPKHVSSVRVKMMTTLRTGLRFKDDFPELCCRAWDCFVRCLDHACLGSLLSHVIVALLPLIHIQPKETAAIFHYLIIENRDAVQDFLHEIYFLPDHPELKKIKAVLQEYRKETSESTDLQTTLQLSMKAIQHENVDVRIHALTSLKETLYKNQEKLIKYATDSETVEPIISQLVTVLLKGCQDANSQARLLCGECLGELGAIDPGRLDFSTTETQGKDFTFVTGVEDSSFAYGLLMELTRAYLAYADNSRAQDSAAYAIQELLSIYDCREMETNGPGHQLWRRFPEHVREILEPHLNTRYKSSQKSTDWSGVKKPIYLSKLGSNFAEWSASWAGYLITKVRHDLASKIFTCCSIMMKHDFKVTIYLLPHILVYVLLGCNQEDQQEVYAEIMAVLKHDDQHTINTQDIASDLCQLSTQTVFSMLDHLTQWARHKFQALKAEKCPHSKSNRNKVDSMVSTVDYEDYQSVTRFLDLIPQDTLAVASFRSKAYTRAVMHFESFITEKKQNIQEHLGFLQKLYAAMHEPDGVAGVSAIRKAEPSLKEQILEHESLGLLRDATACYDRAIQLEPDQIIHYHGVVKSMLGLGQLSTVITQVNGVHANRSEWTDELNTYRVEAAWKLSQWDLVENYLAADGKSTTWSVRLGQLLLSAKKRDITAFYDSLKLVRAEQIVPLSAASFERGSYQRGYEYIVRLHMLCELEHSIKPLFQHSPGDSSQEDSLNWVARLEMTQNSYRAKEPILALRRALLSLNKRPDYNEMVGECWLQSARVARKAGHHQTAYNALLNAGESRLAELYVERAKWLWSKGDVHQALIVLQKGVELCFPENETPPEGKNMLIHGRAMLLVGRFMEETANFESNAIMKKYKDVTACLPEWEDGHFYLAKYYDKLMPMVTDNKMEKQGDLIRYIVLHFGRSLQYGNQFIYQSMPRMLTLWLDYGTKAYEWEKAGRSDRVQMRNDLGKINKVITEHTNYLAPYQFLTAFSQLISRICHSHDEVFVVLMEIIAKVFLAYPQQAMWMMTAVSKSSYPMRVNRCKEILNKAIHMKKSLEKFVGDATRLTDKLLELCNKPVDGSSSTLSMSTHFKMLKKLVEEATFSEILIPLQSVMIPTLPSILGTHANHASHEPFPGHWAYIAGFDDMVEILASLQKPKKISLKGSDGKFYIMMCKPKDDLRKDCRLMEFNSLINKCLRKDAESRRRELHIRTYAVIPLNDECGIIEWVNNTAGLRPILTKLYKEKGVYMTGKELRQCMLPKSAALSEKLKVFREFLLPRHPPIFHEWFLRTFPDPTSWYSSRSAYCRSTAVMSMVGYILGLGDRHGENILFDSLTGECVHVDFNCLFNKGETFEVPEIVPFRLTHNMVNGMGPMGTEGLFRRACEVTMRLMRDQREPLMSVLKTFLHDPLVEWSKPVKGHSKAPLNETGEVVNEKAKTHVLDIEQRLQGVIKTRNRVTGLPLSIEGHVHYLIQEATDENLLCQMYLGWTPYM

Compound	Ki [nM]
CC(C)n1cc(-c2cnc(N)c(C#Cc3cccc(O)c3)n2)ccc1=O [Compound I-16, 5-[5-Amino-6-[2-(3-hydroxyphenyl)ethynyl]pyrazin-2-yl]-1-isopropyl-pyridin-2-one]	≤ 100
C#Cc1nc(-c2ccc(S(=O)(=O)C(C)C)cc2)cnc1N [Compound I-5, 3-Ethynyl-5-(4-isopropylsulfonylphenyl)pyrazin-2-amine]	100 to 1000
CC(C)S(=O)(=O)c1ccc(-c2cnc(N)c(C#CC3CCCCC3)n2)cc1 [Compound I-8, 3-(2-Cyclohexylethynyl)-5-(4-isopropylsulfonylphenyl)pyrazin-2-amine]	100 to 1000
CC(C)S(=O)(=O)c1ccc(-c2cnc(N)c(C#Cc3ccncc3)n2)cc1 [Compound I-32, 5-(4-Isopropylsulfonylphenyl)-3-[2-(4-pyridyl)ethynyl]pyrazin-2-amine]	≤ 100
Nc1ncc(-c2ccc(S(=O)(=O)C3CCNCC3)cc2)nc1C#Cc1cccc(O)c1 [Compound I-17, 3-[2-[3-Amino-6-[4-(4-piperidylsulfonyl)phenyl]pyrazin-2-yl]ethynyl]phenol]	≤ 100
CC(C)S(=O)(=O)c1ccc(-c2cnc(N)c(C#Cc3ccsc3)n2)cc1 [Compound I-31, 5-(4-Isopropylsulfonylphenyl)-3-[2-(3-thienyl)ethynyl]pyrazin-2-amine]	100 to 1000
CC(C)S(=O)(=O)c1ccc(-c2cnc(N)c(C#Cc3cccc(NC(=O)CN)c3)n2)cc1 [Compound I-49, 2-amino-N-(3-((3-amino-6-(4-(isopropylsulfonyl)phenyl)pyrazin-2-yl)ethynyl)phenyl)acetamide]	≤ 100
CC(C)S(=O)(=O)c1ccc(-c2cnc(N)c(C#Cc3ccccc3Cl)n2)cc1 [Compound I-12, 3-[2-(2-Chlorophenyl)ethynyl]-5-(4-isopropylsulfonylphenyl)pyrazin-2-amine]	≤ 100
CC(C)S(=O)(=O)c1ccc(-c2cnc(N)c(C#Cc3ccccc3N)n2)cc1 [Compound I-38, 3-((2-aminophenyl)ethynyl)-5-(4-(isopropylsulfonyl)phenyl)pyrazin-2-amine]	100 to 1000
CC(C)S(=O)(=O)c1ccc(-c2cnc(N)c(C#Cc3cccc(N)n3)n2)cc1 [Compound I-41, 3-((6-aminopyridin-2-yl)ethynyl)-5-(4-(isopropylsulfonyl)phenyl)pyrazin-2-amine]	≤ 100
CNCc1cccc(C#Cc2nc(-c3ccc(S(=O)(=O)C(C)C)cc3)cnc2N)c1 [Compound I-28, 5-(4-Isopropylsulfonylphenyl)-3-[2-[3-(methylaminomethyl)phenyl]ethynyl]pyrazin-2-amine]	≤ 100
CC(C)S(=O)(=O)c1ccc(-c2cnc(N)c(C#Cc3cccc4[nH]ncc34)n2)cc1 [Compound I-44, 3-((1H-indazol-4-yl)ethynyl)-5-(4-(isopropylsulfonyl)phenyl)pyrazin-2-amine]	≤ 100
Cc1ccc(O)cc1C#Cc1nc(-c2ccc(S(=O)(=O)C(C)C)cc2)cnc1N [Compound I-47, 3-((3-amino-6-(4-(isopropylsulfonyl)phenyl)pyrazin-2-yl)ethynyl)-4-methylphenol]	≤ 100
CC(C)S(=O)(=O)c1ccc(-c2cnc(N)c(C#Cc3cccc(OCCCN(C)C)c3)n2)cc1 [Compound I-20, 3-[2-[3-[3-(Dimethylamino)propoxy]phenyl]ethynyl]-5-(4-isopropylsulfonylphenyl)pyrazin-2-amine]	≤ 100
CC(=O)Nc1cccc(C#Cc2nc(-c3ccc(S(=O)(=O)C(C)C)cc3)cnc2N)c1 [Compound I-6, N-[3-[2-[3-Amino-6-(4-isopropylsulfonylphenyl)pyrazin-2-yl]ethynyl]phenyl]acetamide]	≤ 100
CC(C)S(=O)(=O)c1ccc(-c2cnc(N)c(C#CCc3ccccc3)n2)cc1 [Compound I-10, 5-(4-isopropylsulfonylphenyl)-3-(3-phenylprop-1-ynyl)pyrazin-2-amine]	1000 to 13000
CCC(=O)N1CC=C(c2cnc(N)c(C#Cc3cccc(O)c3)n2)CC1 [Compound I-30, 1-[4-[5-Amino-6-[2-(3-hydroxyphenyl)ethynyl]pyrazin-2-yl]-3,6-dihydro-2H-pyridin-1-yl]propan-1-one]	≤ 100

Second part, the molecule after the results:

Ki [nM]	Compound
1000 to 13000	CC(C)S(=O)(=O)c1ccc(-c2cnc(N)c(C#Cc3ccc(C#N)cc3)n2)cc1 [Compound I-15, 4-[2-[3-Amino-6-(4-isopropylsulfonylphenyl)pyrazin-2-yl]ethynyl]benzonitrile]
≤ 100	CC(C)S(=O)(=O)c1ccc(-c2cnc(N)c(C#Cc3cccc(OCCN)c3)n2)cc1 [Compound I-25, 3-[2-[3-(2-Aminoethoxy)phenyl]ethynyl]-5-(4-isopropylsulfonylphenyl)pyrazin-2-amine]
≤ 100	N#Cc1ccccc1-c1cnc(N)c(C#Cc2cccc(O)c2)n1 [Compound I-18, 2-[5-Amino-6-[2-(3-hydroxyphenyl)ethynyl]pyrazin-2-yl]benzonitrile]
≤ 100	CC(C)S(=O)(=O)c1ccc(-c2cnc(N)c(C#Cc3cccnc3)n2)cc1 [Compound I-13, 5-(4-Isopropylsulfonylphenyl)-3-[2-(3-pyridyl)ethynyl]pyrazin-2-amine]
≤ 100	CC(C)S(=O)(=O)c1ccc(-c2cnc(N)c(C#Cc3cccc(OCCCN)c3)n2)cc1 [Compound I-24, 3-[2-[3-(3-Aminopropoxy)phenyl]ethynyl]-5-(4-isopropylsulfonylphenyl)pyrazin-2-amine]
≤ 100	CC(C)S(=O)(=O)c1ccc(-c2cnc(N)c(C#Cc3ccc(C(O)CN)cc3)n2)cc1 (stereo not shown) [Compound I-42, 2-amino-1-(4-((3-amino-6-(4-(isopropylsulfonyl)phenyl)pyrazin-2-yl)ethynyl)phenyl)ethanol]
100 to 1000	CC(C)S(=O)(=O)c1ccc(-c2cnc(N)c(C#CC3CC3)n2)cc1 [Compound I-27, 3-(2-Cyclopropylethynyl)-5-(4-isopropylsulfonylphenyl)pyrazin-2-amine]
≤ 100	CC(C)S(=O)(=O)c1ccc(-c2cnc(N)c(C#Cc3cncn3C)n2)cc1 [Compound I-39]
≤ 100	CC(C)S(=O)(=O)c1ccc(-c2cnc(N)c(C#Cc3cccc(F)c3)n2)cc1 [Compound I-1, 3-[2-(3-Fluorophenyl)ethynyl]-5-(4-isopropylsulfonylphenyl)pyrazin-2-amine]
100 to 1000	CC(C)S(=O)(=O)c1ccc(-c2cnc(N)c(C#C[C@@H](C)O)n2)cc1 [Compound I-4, (2R)-4-[3-Amino-6-(4-isopropylsulfonylphenyl)pyrazin-2-yl]but-3-yn-2-ol]
100 to 1000	CC(C)S(=O)(=O)c1ccc(-c2cnc(N)c(C#Cc3cccc(OCCN(C)C)c3)n2)cc1 [Compound I-26, 3-[2-[3-(2-Dimethylaminoethyloxy)phenyl]ethynyl]-5-(4-isopropylsulfonylphenyl)pyrazin-2-amine]
≤ 100	CC(C)S(=O)(=O)c1ccc(-c2cnc(N)c(C#Cc3ccc(F)cc3)n2)cc1 [Compound I-14, 3-[2-(4-Fluorophenyl)ethynyl]-5-(4-isopropylsulfonylphenyl)pyrazin-2-amine]
≤ 100	CC(C)S(=O)(=O)c1ccc(-c2cnc(N)c(C#Cc3ccc4[nH]ncc4c3)n2)cc1 [Compound I-45, 3-((1H-indazol-5-yl)ethynyl)-5-(4-(isopropylsulfonyl)phenyl)pyrazin-2-amine]
1000 to 13000	CC(C)S(=O)(=O)c1ccc(-c2cnc(N)c(C#C[C@H](C)O)n2)cc1 [Compound I-29, (2S)-4-[3-Amino-6-(4-isopropylsulfonylphenyl)pyrazin-2-yl]but-3-yn-2-ol]
≤ 100	CC(C)S(=O)(=O)c1ccc(-c2cnc(N)c(C#Cc3cccc(C(N)=O)c3)n2)cc1 [Compound I-37, 3-[2-[3-Amino-6-(4-isopropylsulfonylphenyl)pyrazin-2-yl]ethynyl]benzamide]
≤ 100	CC(C)S(=O)(=O)c1ccc(-c2cnc(N)c(C#Cc3cccc(Cl)c3)n2)cc1 [Compound I-9, 3-[2-(3-Chlorophenyl)ethynyl]-5-(4-isopropylsulfonylphenyl)pyrazin-2-amine]
≤ 100	CC(C)S(=O)(=O)c1ccc(-c2cnc(N)c(C#Cc3cccc4ccccc34)n2)cc1 [Compound I-2, 5-(4-Isopropylsulfonylphenyl)-3-[2-(1-naphthyl)ethynyl]pyrazin-2-amine]
≤ 100	Cc1cccc(C#Cc2nc(-c3ccc(S(=O)(=O)C(C)C)cc3)cnc2N)c1 [Compound I-11, 5-(4-Isopropylsulfonylphenyl)-3-[2-(m-tolyl)ethynyl]pyrazin-2-amine]
≤ 100	CC(C)S(=O)(=O)c1ccc(-c2cnc(N)c(C#Cc3ccccc3N3CCNCC3)n2)cc1 [Compound I-43, 5-(4-(isopropylsulfonyl)phenyl)-3-((2-(piperazin-1-yl)phenyl)ethynyl)pyrazin-2-amine]

same assay, conditions: at 15 uM

inhibition at 15 µM [%]	Compound
30	CC(C)S(=O)(=O)c1ccc(-c2cnc(N)c(C#Cc3ccccc3CO)n2)cc1 [Compound I-46, (2-((3-amino-6-(4-(isopropylsulfonyl)phenyl)pyrazin-2-yl)ethynyl)phenyl)methanol]
